What was measured:
[1] = biological target: SSTR3 (Homo sapiens, UniProt P32745); assay: gpcrMAX PathHunter beta-arrestin
[2] = biological target: GIPR (Homo sapiens, UniProt P48546); assay: gpcrMAX PathHunter beta-arrestin
[3] = biological target: TRHR (Homo sapiens, UniProt P34981); assay: gpcrMAX PathHunter beta-arrestin
[4] = biological target: KISS1R (Homo sapiens, UniProt Q969F8); assay: gpcrMAX PathHunter beta-arrestin
[5] = biological target: SSTR2 (Homo sapiens, UniProt P30874); assay: gpcrMAX PathHunter beta-arrestin
[6] = biological target: CXCR1 (Homo sapiens, UniProt P25024); assay: gpcrMAX PathHunter beta-arrestin
[7] = system: LC:A549/ATCC; parameters: method as in earlier work; conditions: NCI-60 panel; ref [4],[5],[6],[7]; cited from earlier work
[8] = biological target: HRH3 (Homo sapiens, UniProt Q9Y5N1); assay: gpcrMAX PathHunter beta-arrestin
[9] = biological target: HRH2 (Homo sapiens, UniProt P25021); assay: gpcrMAX PathHunter beta-arrestin
[10] = biological target: HTR1A (Homo sapiens, UniProt P08908); assay: gpcrMAX PathHunter beta-arrestin
[11] = system: OV:SK-OV-3; parameters: method as in earlier work; conditions: NCI-60 panel; ref [4],[5],[6],[7]; cited from earlier work
[12] = biological target: MC4R (Homo sapiens, UniProt P32245); assay: gpcrMAX PathHunter beta-arrestin
[13] = biological target: PTGER3 (Homo sapiens, UniProt P43115); assay: gpcrMAX PathHunter beta-arrestin
[14] = system: CO:HCC-2998; parameters: method as in earlier work; conditions: NCI-60 panel; ref [4],[5],[6],[7]; cited from earlier work
[15] = system: CNS:SF-295; parameters: method as in earlier work; conditions: NCI-60 panel; ref [4],[5],[6],[7]; cited from earlier work
[16] = system: RE:RXF 393; parameters: method as in earlier work; conditions: NCI-60 panel; ref [4],[5],[6],[7]; cited from earlier work
[17] = system: LC:NCI-H23; parameters: method as in earlier work; conditions: NCI-60 panel; ref [4],[5],[6],[7]; cited from earlier work
[18] = biological target: GCGR (Homo sapiens, UniProt P47871); assay: gpcrMAX PathHunter beta-arrestin
[19] = biological target: GPR92 (Homo sapiens, UniProt Q9H1C0); assay: gpcrMAX PathHunter beta-arrestin
[20] = system: CO:HCT-15; parameters: method as in earlier work; conditions: NCI-60 panel; ref [4],[5],[6],[7]; cited from earlier work
[21] = biological target: ADRA1B (Homo sapiens, UniProt P35368); assay: gpcrMAX PathHunter beta-arrestin
[22] = system: ME:UACC-62; parameters: method as in earlier work; conditions: NCI-60 panel; ref [4],[5],[6],[7]; cited from earlier work
[23] = biological target: CHRM5 (Homo sapiens, UniProt P08912); assay: gpcrMAX PathHunter beta-arrestin
[24] = biological target: VIPR1 (Homo sapiens, UniProt P32241); assay: gpcrMAX PathHunter beta-arrestin
[25] = biological target: RXFP3 (Homo sapiens, UniProt Q9NSD7); assay: gpcrMAX PathHunter beta-arrestin
[26] = biological target: ADRB1 (Homo sapiens, UniProt P08588); assay: gpcrMAX PathHunter beta-arrestin
[27] = biological target: PROKR2 (Homo sapiens, UniProt Q8NFJ6); assay: gpcrMAX PathHunter beta-arrestin
[28] = biological target: FSHR (Homo sapiens, UniProt P23945); assay: gpcrMAX PathHunter beta-arrestin
[29] = biological target: OXTR (Homo sapiens, UniProt P30559); assay: gpcrMAX PathHunter beta-arrestin
[30] = biological target: HTR1F (Homo sapiens, UniProt P30939); assay: gpcrMAX PathHunter beta-arrestin
[31] = biological target: F2RL1 (Homo sapiens, UniProt P55085); assay: gpcrMAX PathHunter beta-arrestin
[32] = biological target: MC5R (Homo sapiens, UniProt P33032); assay: gpcrMAX PathHunter beta-arrestin
[33] = system: BR:HS 578T; parameters: method as in earlier work; conditions: NCI-60 panel; ref [4],[5],[6],[7]; cited from earlier work
[34] = biological target: EDG4 (Homo sapiens, UniProt Q9HBW0); assay: gpcrMAX PathHunter beta-arrestin
[35] = biological target: CXCR5 (Homo sapiens, UniProt P32302); assay: gpcrMAX PathHunter beta-arrestin
[36] = system: ME:SK-MEL-2; parameters: method as in earlier work; conditions: NCI-60 panel; ref [4],[5],[6],[7]; cited from earlier work
[37] = biological target: DRD5 (Homo sapiens, UniProt P21918); assay: gpcrMAX PathHunter beta-arrestin
[38] = biological target: MRGPRX2 (Homo sapiens, UniProt Q96LB1); assay: gpcrMAX PathHunter beta-arrestin
[39] = biological target: HTR2C (Homo sapiens, UniProt P28335); assay: gpcrMAX PathHunter beta-arrestin
[40] = biological target: PTGIR (Homo sapiens, UniProt P43119); assay: gpcrMAX PathHunter beta-arrestin
[41] = biological target: F2RL3 (Homo sapiens, UniProt Q96RI0); assay: gpcrMAX PathHunter beta-arrestin

MC5R, sequence (P33032 whole entry): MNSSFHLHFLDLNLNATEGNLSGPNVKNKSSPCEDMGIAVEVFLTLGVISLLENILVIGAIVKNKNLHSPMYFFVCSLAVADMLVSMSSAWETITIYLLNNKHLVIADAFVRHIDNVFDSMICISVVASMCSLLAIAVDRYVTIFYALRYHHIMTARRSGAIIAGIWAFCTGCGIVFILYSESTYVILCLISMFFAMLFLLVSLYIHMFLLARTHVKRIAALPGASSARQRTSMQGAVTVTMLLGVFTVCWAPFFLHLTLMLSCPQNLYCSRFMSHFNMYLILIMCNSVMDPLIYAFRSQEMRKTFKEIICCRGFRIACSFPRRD
DRD5, sequence (P21918 whole entry): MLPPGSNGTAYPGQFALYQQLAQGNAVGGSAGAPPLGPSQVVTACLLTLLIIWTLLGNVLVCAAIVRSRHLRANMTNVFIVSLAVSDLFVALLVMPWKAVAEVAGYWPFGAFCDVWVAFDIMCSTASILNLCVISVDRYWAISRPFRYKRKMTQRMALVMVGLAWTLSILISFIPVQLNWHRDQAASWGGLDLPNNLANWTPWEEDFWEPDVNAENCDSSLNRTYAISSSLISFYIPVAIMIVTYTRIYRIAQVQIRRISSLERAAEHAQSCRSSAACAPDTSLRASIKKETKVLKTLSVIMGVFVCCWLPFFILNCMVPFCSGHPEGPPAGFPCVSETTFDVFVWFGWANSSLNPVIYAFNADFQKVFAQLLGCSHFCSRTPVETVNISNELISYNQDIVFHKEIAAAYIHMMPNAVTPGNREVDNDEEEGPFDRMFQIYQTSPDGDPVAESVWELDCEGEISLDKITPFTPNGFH
OXTR, sequence (P30559 whole entry): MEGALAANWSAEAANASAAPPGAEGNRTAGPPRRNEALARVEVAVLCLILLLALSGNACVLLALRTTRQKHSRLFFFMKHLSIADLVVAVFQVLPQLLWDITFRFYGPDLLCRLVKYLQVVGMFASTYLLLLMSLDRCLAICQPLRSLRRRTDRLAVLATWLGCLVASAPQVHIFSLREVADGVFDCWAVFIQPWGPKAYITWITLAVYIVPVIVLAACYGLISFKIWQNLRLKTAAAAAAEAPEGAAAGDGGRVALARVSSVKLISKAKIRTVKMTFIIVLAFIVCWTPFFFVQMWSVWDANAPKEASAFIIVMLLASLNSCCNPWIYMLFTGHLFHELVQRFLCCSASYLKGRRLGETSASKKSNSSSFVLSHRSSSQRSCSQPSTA
GPR92, sequence (Q9H1C0 whole entry): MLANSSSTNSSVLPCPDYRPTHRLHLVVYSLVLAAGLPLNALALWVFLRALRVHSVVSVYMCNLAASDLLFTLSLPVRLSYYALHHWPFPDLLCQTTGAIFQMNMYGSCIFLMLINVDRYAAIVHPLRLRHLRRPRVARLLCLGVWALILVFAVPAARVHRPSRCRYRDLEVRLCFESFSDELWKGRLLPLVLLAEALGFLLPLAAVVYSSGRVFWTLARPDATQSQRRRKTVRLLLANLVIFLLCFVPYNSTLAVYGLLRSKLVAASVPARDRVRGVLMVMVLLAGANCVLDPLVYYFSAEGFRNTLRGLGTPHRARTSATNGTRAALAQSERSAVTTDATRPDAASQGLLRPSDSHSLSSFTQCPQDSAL
F2RL1, sequence (P55085 26-397): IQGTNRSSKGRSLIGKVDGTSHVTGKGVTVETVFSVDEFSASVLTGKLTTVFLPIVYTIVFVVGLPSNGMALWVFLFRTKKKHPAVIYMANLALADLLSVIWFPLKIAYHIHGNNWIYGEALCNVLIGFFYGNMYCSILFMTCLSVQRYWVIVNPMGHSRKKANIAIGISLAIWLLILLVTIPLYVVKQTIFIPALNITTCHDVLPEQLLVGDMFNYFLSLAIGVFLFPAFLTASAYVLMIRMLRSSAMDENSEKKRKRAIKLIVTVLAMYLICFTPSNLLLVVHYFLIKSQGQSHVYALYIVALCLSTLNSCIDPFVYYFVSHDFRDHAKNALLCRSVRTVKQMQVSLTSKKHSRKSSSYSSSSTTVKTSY
ADRA1B, sequence (P35368 whole entry): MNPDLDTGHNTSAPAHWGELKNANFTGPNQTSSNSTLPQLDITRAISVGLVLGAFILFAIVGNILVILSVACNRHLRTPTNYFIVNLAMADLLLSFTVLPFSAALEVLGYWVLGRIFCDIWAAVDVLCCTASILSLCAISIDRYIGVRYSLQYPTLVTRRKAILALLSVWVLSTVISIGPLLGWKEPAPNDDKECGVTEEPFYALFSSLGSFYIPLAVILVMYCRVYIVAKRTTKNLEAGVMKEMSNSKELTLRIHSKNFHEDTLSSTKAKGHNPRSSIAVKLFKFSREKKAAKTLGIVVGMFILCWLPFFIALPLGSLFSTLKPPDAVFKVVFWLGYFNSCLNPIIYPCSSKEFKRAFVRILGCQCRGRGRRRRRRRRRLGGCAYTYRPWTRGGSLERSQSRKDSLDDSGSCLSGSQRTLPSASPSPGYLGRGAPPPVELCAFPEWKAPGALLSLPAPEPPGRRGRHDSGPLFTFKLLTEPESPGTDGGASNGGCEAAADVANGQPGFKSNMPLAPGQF
FSHR, sequence (P23945 18-695): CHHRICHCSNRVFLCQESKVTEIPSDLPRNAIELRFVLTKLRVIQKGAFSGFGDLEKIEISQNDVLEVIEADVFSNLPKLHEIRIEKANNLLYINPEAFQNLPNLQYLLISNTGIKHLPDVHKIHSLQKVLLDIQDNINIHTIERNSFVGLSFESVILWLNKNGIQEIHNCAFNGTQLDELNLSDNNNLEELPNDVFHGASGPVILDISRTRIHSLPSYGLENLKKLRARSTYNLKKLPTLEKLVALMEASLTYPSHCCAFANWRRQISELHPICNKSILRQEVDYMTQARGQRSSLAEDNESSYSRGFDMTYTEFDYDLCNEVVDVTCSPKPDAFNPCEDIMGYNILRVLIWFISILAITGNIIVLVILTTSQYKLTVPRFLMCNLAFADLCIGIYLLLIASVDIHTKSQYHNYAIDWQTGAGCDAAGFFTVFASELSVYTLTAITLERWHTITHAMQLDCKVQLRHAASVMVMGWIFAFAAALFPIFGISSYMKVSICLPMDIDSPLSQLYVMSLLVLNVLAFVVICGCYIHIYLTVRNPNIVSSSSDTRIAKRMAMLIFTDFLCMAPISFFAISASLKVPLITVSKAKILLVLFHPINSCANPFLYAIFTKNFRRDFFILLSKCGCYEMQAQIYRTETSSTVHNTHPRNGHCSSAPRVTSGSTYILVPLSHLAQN
CXCR1, sequence (P25024 whole entry): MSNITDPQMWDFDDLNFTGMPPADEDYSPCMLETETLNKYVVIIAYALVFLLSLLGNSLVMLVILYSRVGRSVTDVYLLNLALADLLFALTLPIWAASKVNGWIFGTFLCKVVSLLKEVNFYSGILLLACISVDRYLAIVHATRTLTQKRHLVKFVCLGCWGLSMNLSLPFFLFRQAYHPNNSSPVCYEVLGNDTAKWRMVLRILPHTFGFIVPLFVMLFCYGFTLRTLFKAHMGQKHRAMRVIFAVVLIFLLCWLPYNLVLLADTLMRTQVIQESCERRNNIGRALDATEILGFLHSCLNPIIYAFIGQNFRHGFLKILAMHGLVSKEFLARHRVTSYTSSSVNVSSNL
TRHR, sequence (P34981 whole entry): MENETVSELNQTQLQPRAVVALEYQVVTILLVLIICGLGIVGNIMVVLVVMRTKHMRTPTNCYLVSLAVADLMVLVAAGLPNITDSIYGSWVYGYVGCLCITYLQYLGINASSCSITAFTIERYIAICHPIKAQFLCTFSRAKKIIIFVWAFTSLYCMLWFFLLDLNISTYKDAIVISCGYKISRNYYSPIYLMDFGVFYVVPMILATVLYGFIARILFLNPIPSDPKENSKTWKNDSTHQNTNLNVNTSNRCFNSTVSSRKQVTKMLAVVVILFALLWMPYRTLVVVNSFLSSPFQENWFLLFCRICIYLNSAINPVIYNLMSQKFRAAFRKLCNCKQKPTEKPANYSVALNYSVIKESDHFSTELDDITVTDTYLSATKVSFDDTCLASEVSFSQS
CXCR5, sequence (P32302 whole entry): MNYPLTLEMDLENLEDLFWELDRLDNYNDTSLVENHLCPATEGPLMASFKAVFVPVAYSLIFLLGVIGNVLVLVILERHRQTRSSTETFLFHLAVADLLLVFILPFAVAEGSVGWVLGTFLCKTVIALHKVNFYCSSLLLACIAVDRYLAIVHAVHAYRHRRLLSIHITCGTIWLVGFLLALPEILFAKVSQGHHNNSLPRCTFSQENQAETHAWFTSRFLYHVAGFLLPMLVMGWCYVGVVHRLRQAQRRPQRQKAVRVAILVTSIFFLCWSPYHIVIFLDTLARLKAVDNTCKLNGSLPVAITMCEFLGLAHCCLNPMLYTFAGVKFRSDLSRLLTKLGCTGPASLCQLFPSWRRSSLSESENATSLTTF
RXFP3, sequence (Q9NSD7 whole entry): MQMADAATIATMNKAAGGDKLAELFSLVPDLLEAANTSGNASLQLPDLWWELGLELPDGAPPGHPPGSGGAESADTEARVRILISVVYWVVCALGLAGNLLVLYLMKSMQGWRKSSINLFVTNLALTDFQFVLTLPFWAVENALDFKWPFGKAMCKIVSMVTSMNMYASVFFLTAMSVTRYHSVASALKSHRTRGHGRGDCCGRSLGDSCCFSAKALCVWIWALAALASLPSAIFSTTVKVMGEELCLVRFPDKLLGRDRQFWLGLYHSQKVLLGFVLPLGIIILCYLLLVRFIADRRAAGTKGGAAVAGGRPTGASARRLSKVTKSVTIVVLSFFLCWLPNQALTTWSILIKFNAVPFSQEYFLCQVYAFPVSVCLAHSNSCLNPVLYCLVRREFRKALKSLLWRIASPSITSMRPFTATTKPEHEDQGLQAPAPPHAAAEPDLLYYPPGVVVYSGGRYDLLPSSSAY

Cc1c(Cl)cccc1NC(=O)c1sc2nc3c(cc2c1N)C(=O)CCC3 [Compound 1]
inhibition at 10 µM [1]: 5% | inhibition at 10 µM [2]: 2% | inhibition at 10 µM [3]: 13% | inhibition at 10 µM [4]: 5% | inhibition at 10 µM [5]: 9% | inhibition at 10 µM [6]: 2% | GI50 [7]: 63.1 nM | inhibition at 10 µM [8]: -14% | inhibition at 10 µM [9]: 10% | inhibition at 10 µM [10]: 3% | GI50 [11]: 60.6 nM | inhibition at 10 µM [12]: -42% | inhibition at 10 µM [13]: 11% | GI50 [14]: 213 nM | GI50 [15]: 36.5 nM | GI50 [16]: 41.8 nM | GI50 [17]: 169 nM | inhibition at 10 µM [18]: 12% | inhibition at 10 µM [19]: -28% | GI50 [20]: 70.5 nM | inhibition at 10 µM [21]: 11% | GI50 [22]: 50.3 nM | inhibition at 10 µM [23]: 8% | inhibition at 10 µM [24]: 7% | inhibition at 10 µM [25]: -27% | inhibition at 10 µM [26]: -27% | inhibition at 10 µM [27]: -3% | inhibition at 10 µM [28]: 30% | inhibition at 10 µM [29]: 7% | inhibition at 10 µM [30]: -21% | inhibition at 10 µM [31]: 11% | inhibition at 10 µM [32]: 20% | GI50 [33]: 48.2 nM | inhibition at 10 µM [34]: 7% | inhibition at 10 µM [35]: 0% | GI50 [36]: 47.7 nM | inhibition at 10 µM [37]: -31% | inhibition at 10 µM [38]: -1% | inhibition at 10 µM [39]: -4% | inhibition at 10 µM [40]: 8% | inhibition at 10 µM [41]: 9%

Source: paper PMC6149898, “GPCR Modulation of Thieno[2,3-b]pyridine Anti-Proliferative Agents” (Molecules : A Journal of Synthetic Chemistry and Natural …, 2017)
